Test: Inhibition of phorbol ester-induced ornithine decarboxylase in human MCF7 cells after 6 hrs

Point of comparison: `COc1cc(/C=C/c2ccc3c(c2)OC(C)(C)C=C3)cc(OC)c1OC` [3,4,5-trimethoxy-6'',6''-dimethylpyran[2'',3'':3',4']stilbene], IC50 3.9 µM. Against it:
- COc1cc(/C=C/c2cc(OC)c3c(c2)OC(C)(C)C=C3)ccc1O [3,5'-dimethoxy-4-hydroxy-6'',6''-dimethylpyran[2'',3'':3',4']stilbene] — 1.9-fold higher, 7.4 µM
- COc1cc(/C=C/C(=O)c2ccc3c(c2O)C=CC(C)(C)O3)ccc1O [3-methoxy-4-hydroxylonchocarpin] — within 1.5-fold, 3.6 µM
- Oc1ccc(/C=C/c2cc(O)cc(O)c2)cc1 [5-[(E)-2-(4-hydroxyphenyl)ethenyl]benzene-1,3-diol] — 4.9-fold higher, 19 µM
- COc1ccc([C@@H]2CC(=O)c3cc(CC=C(C)C)c4c(c3O2)C=CC(C)(C)O4)cc1OC [(2S)-6-(gamma,gamma-dimethylallyl)-3',4'-dimethoxy-6'',6''-dimethylpyran[2'',3'':7,8]flavanone] — 1.7-fold lower, 2.3 µM
- COc1cc([C@@H]2CC(=O)c3c(O)c(CC=C(C)C)c4c(c3O2)C=CC(C)(C)O4)ccc1O [(2S)-6-(gamma,gamma-dimethylallyl)-5,4'-dihydroxy-3'-methoxy-6'',6''-dimethylpyran[2'',3'':7,8]flavanone] — 3.5-fold lower, 1.1 µM
- O=c1c(-c2ccc(O)cc2)coc2cc(O)cc(O)c12 [Prunetol] — 6.7-fold higher, 26 µM

From BindingDB's records for doi:10.1021/np980119+ (University of California, 1999)
